Experimental data from publication PMC8338929, “Acetylation turns leucine into a drug by membrane transporter switching” (Scientific Reports, 2021).

Biological target: T1, Human OAT3 (SLC22A8) (Homo sapiens, UniProt Q8TCC7)
T1 construct: host or cells: HEK-293
T1 sequence (Q8TCC7 1-542): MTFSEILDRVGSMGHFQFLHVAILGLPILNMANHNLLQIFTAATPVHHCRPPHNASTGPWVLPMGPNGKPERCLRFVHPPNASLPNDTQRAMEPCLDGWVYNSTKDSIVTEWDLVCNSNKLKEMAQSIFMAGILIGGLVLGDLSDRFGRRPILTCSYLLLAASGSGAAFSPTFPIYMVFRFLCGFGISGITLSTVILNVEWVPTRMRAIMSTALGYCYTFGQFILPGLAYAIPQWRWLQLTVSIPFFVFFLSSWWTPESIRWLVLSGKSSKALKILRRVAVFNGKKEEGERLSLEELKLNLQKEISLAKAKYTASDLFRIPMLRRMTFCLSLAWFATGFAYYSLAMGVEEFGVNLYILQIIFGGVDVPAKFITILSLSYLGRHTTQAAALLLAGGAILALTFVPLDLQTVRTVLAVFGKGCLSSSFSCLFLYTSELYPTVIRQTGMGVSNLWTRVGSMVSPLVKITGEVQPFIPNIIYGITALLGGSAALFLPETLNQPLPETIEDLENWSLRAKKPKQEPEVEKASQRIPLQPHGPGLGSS
Test: OAT3-mediated cellular uptake in overexpressing HEK-293 cells
Assay type: cell-based
Experimental: Cells were grown in DMEM (Gibco 4196, high glucose, without sodium pyruvate) supplemented with MEM non-essential amino acids and 10% fetal bovine serum. Cells were re-fed with fresh medium after attachment (4–6 h post-seeding). Cell were plated at a density of 4 × 10^5/well in 24-well plates coated with poly-D-lysine. Transporter assays were conducted in 400 µL of HBSS supplemented with 10 mM Hepes, pH 7.4
The known probe substrates used as positive controls were 3 μM chlorothiazide for OAT1, 2 μM estrone-3-sulfate for OAT3, 10 µM [^3H]gabapentin for LAT1, 50 µM [^3H]Gly-Sar for PepT1, 500 µM thiophene-2-glyoxylic acid for MCT1. The known inhibitors used as controls for each transporter were 100 μM diclofenac for OAT1 and OAT3, 10 µM JPH203 for LAT1 and 200 µM losartan for PepT1. All incubations were in triplicate and contained 1% (OAT1 and OAT3) or 0.5% DMSO (LAT, PepT1 and MCT1). The duration of uptake was 5 min for OAT1 and OAT3, 3 min for LAT1 and PepT1 and 1 min for MCT1. Assays were performed at 37 °C with no shaking, except MCT1 at room temperature. To determine uptake due to the overexpressed transporter per se, uptake was taken as the difference between accumulation between transfected and nontransfected cells in parallel experiments at the same concentration and time. To terminate uptake the plate was placed on ice and cells washed twice with ice-cold transport buffer. […]

- Vmax OAT3 uptake (Michaelis-Menten fit): 138
- substrate of OAT3 (uptake) (pH 7.4, 5 min): substrate
Compound: CC(=O)N[C@@H](CC(C)C)C(=O)O [N-acetyl-L-leucine]
